In publication PMC2568824, “Dibutyltin Disrupts Glucocorticoid Receptor Function and Impairs Glucocorticoid-Induced Suppression of Cytokine Production” (PLoS ONE, 2008):

What was measured:
[1] = target: T1, glucocorticoid receptor (GR-α) (Homo sapiens, UniProt P04150); design: gene NR3C1
T1 sequence (P04150 1-777): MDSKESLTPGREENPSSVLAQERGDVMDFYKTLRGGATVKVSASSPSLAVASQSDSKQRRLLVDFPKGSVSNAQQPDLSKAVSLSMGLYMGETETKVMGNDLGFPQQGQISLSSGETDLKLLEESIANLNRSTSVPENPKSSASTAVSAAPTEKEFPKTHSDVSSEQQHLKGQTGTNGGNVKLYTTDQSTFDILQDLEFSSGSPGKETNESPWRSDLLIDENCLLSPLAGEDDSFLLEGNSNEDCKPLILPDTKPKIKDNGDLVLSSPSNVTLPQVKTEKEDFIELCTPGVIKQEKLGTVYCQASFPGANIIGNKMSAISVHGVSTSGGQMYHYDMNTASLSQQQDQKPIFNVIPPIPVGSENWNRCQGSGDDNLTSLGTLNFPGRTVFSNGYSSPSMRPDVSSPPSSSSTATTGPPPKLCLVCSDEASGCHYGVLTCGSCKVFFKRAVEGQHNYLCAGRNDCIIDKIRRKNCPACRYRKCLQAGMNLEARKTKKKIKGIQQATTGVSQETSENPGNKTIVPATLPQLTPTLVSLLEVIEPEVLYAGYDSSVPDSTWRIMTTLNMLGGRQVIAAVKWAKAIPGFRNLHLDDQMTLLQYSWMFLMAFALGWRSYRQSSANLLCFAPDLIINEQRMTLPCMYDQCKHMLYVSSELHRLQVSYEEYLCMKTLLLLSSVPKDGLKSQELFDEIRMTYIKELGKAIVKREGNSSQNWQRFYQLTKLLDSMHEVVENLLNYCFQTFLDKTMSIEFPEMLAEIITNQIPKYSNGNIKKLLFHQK

[2] = target: T1, glucocorticoid receptor (GR-α); assay: inhibition of [3H]-dexamethasone binding in intact GR-transfected HEK-293 cells, overnight DBT preincubation ([…] for […] inhibition without preincubation); also transactivation reporter; format: cell-based; design: gene NR3C1; human GR-α, transiently expressed in HEK-293 cells

Row | Compound | radioligand binding (10 nM [3H]-dexamethasone) and displacement by unlabeled dex [1] | IC50 [2]
1 | C[C@@H]1C[C@H]2[C@@H]3CCC4=CC(=O)C=C[C@]4(C)[C@@]3(F)[C@@H](O)C[C@]2(C)[C@@]1(O)C(=O)CO [Dex, dexamethasone] | Addition of unlabeled dexamethasone revealed a typical displacement pattern of tritiated dexamethasone in the presence or absence of DBT | –
2 | dibutyltin [DBT] | – | ~0.05 µM
